Values after ≈ are worked out from the molar mass of the structure shown. Like-named read-outs stand apart in the source and are kept apart here.
What was measured:
[1] = test system: Penicillium verrucosum var. cyclopium (food isolate); test: Antifungal bioassay (MIC/MFC); type: cell-based
Method: For the antifungal bioassays, six fungi were used: Aspergillus niger (ATCC 6275), Aspergillus fumigatus (ATCC 1022), Aspergillus versicolor (ATCC 11730), Penicillium funiculosum (ATCC 36839), Trichoderma viride (IAM 5061), and Penicillium verrucosum var. cyclopium (food isolate). The organisms were obtained from the Mycological Laboratory, Department of Plant Physiology, Institute for Biological Research “Siniša Stankovic”, Belgrade, Serbia. All experiments were performed in duplicate.

[2] = test system: Staphylococcus aureus (ATCC 6538); test: Antibacterial microdilution (MIC/MBC); type: cell-based; conditions: S.a. (S. aureus)
Method: (§1) The synthesized compounds (Table 1) were evaluated for their antibacterial activity against a panel of eight species using a microdilution method with ampicillin and streptomycin as reference drugs. […] The order of activity can be presented as: 8 > 11 > 2 > 1 > 12 > 3 > 17 > 7 > 5 > 13 > 14 > 16 > 9 > 4 = 6 > 15 > 10. […] Cloacae. […] The most sensitive bacteria appeared to be En. cloacae, while E. coli was the most resistant one, followed by M. flavus.
(§2) The following Gram-negative bacteria: Escherichia coli (ATCC 35210), Enterobacter cloacae (clinical isolate), Salmonella typhimurium (ATCC 13311), as well as Gram-positive bacteria: Listeria monocytogenes (NCTC 7973), Bacillus cereus (clinical isolate), and Staphylococcus aureus (ATCC 6538) were used. The organisms were obtained from the Mycological Laboratory, Department of Plant Physiology, Institute for Biological Research “Siniša Stankovic”, Belgrade, Serbia. The minimum inhibitory (MIC) and minimum bactericidal (MBC) concentrations were determined by the modified microdilution method, as previously reported.

[3] = test system: Escherichia coli (ATCC 35210); test: Antibacterial microdilution (MIC/MBC); type: cell-based; conditions: Escherichia coli, ATCC35210, E. coli; for MIC: read-out: MIC
Method: as §1, §2

P. aeruginosa = test: Antibacterial microdilution (MIC/MBC); type: cell-based; conditions: Pseudomonas aeruginosa, P.a. (P. aeruginosa); for MIC: read-out: MIC
Method: as §1, §2

[4] = test system: Salmonella typhimurium (ATCC 13311); test: Antibacterial microdilution (MIC/MBC); type: cell-based; conditions: Salmonella enterica, S.t. (S. typhimurium); for MIC: read-out: MIC
Method: as §1, §2

[5] = test system: Listeria monocytogenes (NCTC 7973); test: Antibacterial microdilution (MIC/MBC); type: cell-based; conditions: L.m. (L. monocytogenes)
Method: as §1, §2

[6] = test system: Bacillus cereus (clinical isolate); test: Antibacterial microdilution (MIC/MBC); type: cell-based; conditions: Bacillus cereus, B.c. (B. cereus); for MIC: read-out: MIC
Method: as §1, §2

[7] = test system: Enterobacter cloacae (clinical isolate); test: Antibacterial microdilution (MIC/MBC); type: cell-based; conditions: Enterobacter cloacae, En.cl (En. cloacae); for MIC: read-out: MIC
Method: as §1, §2

M. flavus = test: Antibacterial microdilution (MIC/MBC); type: cell-based; conditions: Micrococcus flavus; M.f. (M. flavus)
Method: as §1, §2

A. ochraceus = test: Antifungal bioassay (MIC/MFC); type: cell-based; conditions: A.o. (A. ochraceus)
Method: (§3) For the antifungal bioassays, six fungi were used: […] The organisms were obtained from the Mycological Laboratory, Department of Plant Physiology, Institute for Biological Research “Siniša Stankovic”, Belgrade, Serbia. All experiments were performed in duplicate.

P. ochrochloron = test: Antifungal bioassay (MIC/MFC); type: cell-based; conditions: for MFC: P.o. (P. ochrochloron); for MIC: P.o. (P. ochrochloron; text: P. ochramensis)
Method: as §3

[8] = test system: Trichoderma viride (IAM 5061); test: Antifungal bioassay (MIC/MFC); type: cell-based; conditions: T.v. (T. viride)
Method: as §3

[9] = test system: Aspergillus versicolor (ATCC 11730); test: Antifungal bioassay (MIC/MFC); type: cell-based; conditions: ATCC11730, A.v. (A. versicolor)
Method: as §3

[10] = test system: Penicillium funiculosum (ATCC 36839); test: Antifungal bioassay (MIC/MFC); type: cell-based; conditions: Talaromyces funiculosus, ATCC36839; P.f. (P. funiculosum)
Method: as §3

[11] = test system: Aspergillus niger (ATCC 6275); test: Antifungal bioassay (MIC/MFC); type: cell-based; conditions: ATCC6275, A.n. (A. niger)
Method: as §3

[12] = test system: Aspergillus fumigatus (ATCC 1022); test: Antifungal bioassay (MIC/MFC); type: cell-based; conditions: ATCC1022, A.f. (A. fumigatus)
Method: as §3

[13] = Staphylococcus aureus, ATCC6538
[14] = Staphylococcus aureus, ATCC6538, read-out: MIC
[15] = Listeria monocytogenes, NCTC7973
[16] = Listeria monocytogenes, NCTC7973, read-out: MIC
[17] = Aspergillus ochraceus, read-out: MIC
[18] = Penicillium ochrochloron, read-out: MIC
[19] = Trichoderma viride, IAM5061, read-out: MIC

| SMILES | MFC [1] [µg/mL] | MIC [1] [µg/mL] | melting point [°C] | MBC [2, 13] [µg/mL] | MIC [2, 14] [µg/mL] | MBC [3] [µg/mL] | MBC (P. aeruginosa) [µg/mL] | MIC (P. aeruginosa) [µg/mL] | MBC [4] [µg/mL] | MBC [5, 15] [µg/mL] | MIC [5, 16] [µg/mL] | MBC [6] [µg/mL] | MIC [6] [µg/mL] | MBC [7] [µg/mL] | MIC [7] [µg/mL] | MBC (M. flavus) [µg/mL] | MIC (M. flavus) [µg/mL] | MFC (A. ochraceus; Aspergillus ochraceus) [µg/mL] | MIC (A. ochraceus; [17]) [µg/mL] | MFC (P. ochrochloron; Penicillium ochrochloron) [µg/mL] | further results |
| --- | --- | --- | --- | --- | --- | --- | --- | --- | --- | --- | --- | --- | --- | --- | --- | --- | --- | --- | --- | --- | --- |
| COC(=O)c1[nH]c2ccccc2c1/C=C1\SC(=S)N(C(C(=O)O)C(C)C)C1=O (stereo not drawn) [Compound 12, (Z)-2-(5-((2-(methoxycarbonyl)-1H-indol-3-yl)methylene)-4-oxo-2-thioxothiazolidin-3-yl)-3-methylbutanoic acid] | 60 ± 6 (≈ 143 µM) | 30 ± 10 (≈ 71.7 µM) | 256 to 258 | 60 ± 6 (≈ 143 µM) | 30 ± 10 (≈ 71.7 µM) | 30 ± 10 (≈ 71.7 µM) | 30 ± 10 (≈ 71.7 µM) | 15 ± 9 (≈ 35.8 µM) | 8 ± 9 (≈ 19.1 µM) | 30 ± 10 (≈ 71.7 µM) | 15 (≈ 35.8 µM) | 60 ± 6 (≈ 143 µM) | 30 ± 10 (≈ 71.7 µM) | 60 ± 6 (≈ 143 µM) | 15 (≈ 35.8 µM) | 60 ± 6 (≈ 143 µM) | 30 ± 10 (≈ 71.7 µM) | 15 ± 3 (≈ 35.8 µM) | 8 ± 0.6 (≈ 19.1 µM) | 30 ± 10 (≈ 71.7 µM) | MIC [5]: 15 ± 1 µg/mL (≈ 35.8 µM); MIC (P. ochrochloron; [18]): 15 ± 3 µg/mL (≈ 35.8 µM); MIC [8]: 8 ± 0.6 µg/mL (≈ 19.1 µM); MFC ([8]; Trichoderma viride, IAM5061): 15 ± 3 µg/mL (≈ 35.8 µM); MIC [8, 19]: 8 µg/mL (≈ 19.1 µM); MFC [9]: 15 ± 3 µg/mL (≈ 35.8 µM); MIC [9]: 8 ± 0.6 µg/mL (≈ 19.1 µM); MFC [10]: 30 ± 10 µg/mL (≈ 71.7 µM); MIC [10]: 15 ± 3 µg/mL (≈ 35.8 µM); MFC [11]: 30 ± 10 µg/mL (≈ 71.7 µM); MIC [11]: 22 ± 5 µg/mL (≈ 52.6 µM); MFC [12]: 120 ± 40 µg/mL (≈ 287 µM); MIC [12]: 60 ± 6 µg/mL (≈ 143 µM) |
| COC(=O)c1[nH]c2ccc(F)cc2c1/C=C1\SC(=S)N(c2ccc(O)cc2)C1=O [Compound 10, (Z)-methyl 5-fluoro-3-((3-(4-hydroxyphenyl)-4-oxo-2-thioxothiazolidin-5-ylidene)methyl)-1H-indole-2-carboxylate] | 30 ± 10 (≈ 70 µM) | 15 ± 3 (≈ 35 µM) | 267 to 268 | 60 ± 6 (≈ 140 µM) | 30 ± 10 (≈ 70 µM) | 60 ± 6 (≈ 140 µM) | 60 ± 6 (≈ 140 µM) | 30 ± 10 (≈ 70 µM) | 60 ± 6 (≈ 140 µM) | 60 ± 6 (≈ 140 µM) | 30 ± 10 (≈ 70 µM) | 60 ± 6 (≈ 140 µM) | 30 ± 10 (≈ 70 µM) | 60 ± 6 (≈ 140 µM) | 30 ± 10 (≈ 70 µM) | 60 ± 6 (≈ 140 µM) | 45 ± 3 (≈ 105 µM) | 8 ± 0.6 (≈ 18.7 µM) | 4 (≈ 9.34 µM) | 15 ± 3 (≈ 35 µM) | MIC [3]: 30 ± 10 µg/mL (≈ 70 µM); MIC [4]: 45 ± 3 µg/mL (≈ 105 µM); MIC (A. ochraceus): 4 ± 1 µg/mL (≈ 9.34 µM); MIC (P. ochrochloron): 8 ± 0.6 µg/mL (≈ 18.7 µM); MIC (P. ochrochloron; [18]): 8 µg/mL (≈ 18.7 µM); MIC [8]: 4 ± 1 µg/mL (≈ 9.34 µM); MFC ([8]; Trichoderma viride, IAM5061): 8 ± 0.6 µg/mL (≈ 18.7 µM); MIC [8, 19]: 4 µg/mL (≈ 9.34 µM); MFC [9]: 15 ± 3 µg/mL (≈ 35 µM); MIC [9]: 8 ± 0.6 µg/mL (≈ 18.7 µM); MFC [10]: 15 ± 3 µg/mL (≈ 35 µM); MIC [10]: 8 ± 0.6 µg/mL (≈ 18.7 µM); MFC [11]: 15 ± 3 µg/mL (≈ 35 µM); MIC [11]: 8 ± 0.6 µg/mL (≈ 18.7 µM); MFC [12]: 120 ± 40 µg/mL (≈ 280 µM); MIC [12]: 60 ± 6 µg/mL (≈ 140 µM) |
| COC(=O)c1[nH]c2ccccc2c1/C=C1\SC(=S)N(c2ccc(O)cc2)C1=O [Compound 4, (Z)-methyl 3-((3-(4-hydroxyphenyl)-4-oxo-2-thioxothiazolidin-5-ylidene)methyl)-1H-indole-2-carboxylate] | 60 ± 6 (≈ 146 µM) | 30 ± 10 (≈ 73.1 µM) | 282 to 284 | 60 ± 6 (≈ 146 µM) | 30 ± 10 (≈ 73.1 µM) | 60 ± 6 (≈ 146 µM) | 60 ± 6 (≈ 146 µM) | 30 ± 10 (≈ 73.1 µM) | 60 ± 6 (≈ 146 µM) | 60 ± 6 (≈ 146 µM) | 45 ± 1 (≈ 110 µM) | 60 ± 6 (≈ 146 µM) | 30 ± 10 (≈ 73.1 µM) | 30 ± 10 (≈ 73.1 µM) | 15 ± 9 (≈ 36.5 µM) | 60 ± 6 (≈ 146 µM) | 45 ± 3 (≈ 110 µM) | 15 ± 3 (≈ 36.5 µM) | 8 ± 0.6 (≈ 19.5 µM) | 30 ± 10 (≈ 73.1 µM) | MIC [3]: 45 ± 3 µg/mL (≈ 110 µM); MIC [4]: 45 ± 3 µg/mL (≈ 110 µM); MIC (P. ochrochloron; [18]): 15 ± 3 µg/mL (≈ 36.5 µM); MIC [8]: 8 ± 0.6 µg/mL (≈ 19.5 µM); MFC ([8]; Trichoderma viride, IAM5061): 15 ± 3 µg/mL (≈ 36.5 µM); MIC [8, 19]: 8 µg/mL (≈ 19.5 µM); MFC [9]: 15 ± 3 µg/mL (≈ 36.5 µM); MIC [9]: 8 ± 0.6 µg/mL (≈ 19.5 µM); MFC [10]: 30 ± 10 µg/mL (≈ 73.1 µM); MIC [10]: 15 ± 3 µg/mL (≈ 36.5 µM); MFC [11]: 30 ± 10 µg/mL (≈ 73.1 µM); MIC [11]: 15 ± 3 µg/mL (≈ 36.5 µM); MFC [12]: 120 ± 40 µg/mL (≈ 292 µM); MIC [12]: 60 ± 6 µg/mL (≈ 146 µM) |
| COC(=O)c1[nH]c2ccccc2c1/C=C1\SC(=S)N(CCC(=O)O)C1=O [Compound 17, (Z)-3-(5-((2-(methoxycarbonyl)-1H-indol-3-yl)methylene)-4-oxo-2-thioxothiazolidin-3-yl)propanoic acid] | 60 ± 6 (≈ 154 µM) | 30 ± 10 (≈ 76.8 µM) | 265 to 266 | 15 (≈ 38.4 µM) | 8 (≈ 20.5 µM) | 60 ± 6 (≈ 154 µM) | 15 ± 9 (≈ 38.4 µM) | 8 (≈ 20.5 µM) | 60 ± 6 (≈ 154 µM) | 60 ± 6 (≈ 154 µM) | 30 ± 10 (≈ 76.8 µM) | 60 ± 6 (≈ 154 µM) | 30 ± 10 (≈ 76.8 µM) | 15 ± 9 (≈ 38.4 µM) | 8 ± 0.6 (≈ 20.5 µM) | 60 ± 6 (≈ 154 µM) | 30 ± 10 (≈ 76.8 µM) | 15 ± 3 (≈ 38.4 µM) | 8 ± 0.6 (≈ 20.5 µM) | 30 ± 10 (≈ 76.8 µM) | MIC [2]: 8 ± 0.6 µg/mL (≈ 20.5 µM); MIC [3]: 45 ± 3 µg/mL (≈ 115 µM); MIC [4]: 30 ± 10 µg/mL (≈ 76.8 µM); MIC (P. ochrochloron; [18]): 15 ± 3 µg/mL (≈ 38.4 µM); MFC [9]: 30 ± 10 µg/mL (≈ 76.8 µM); MIC [9]: 15 ± 3 µg/mL (≈ 38.4 µM); MFC [10]: 30 ± 10 µg/mL (≈ 76.8 µM); MIC [10]: 15 ± 3 µg/mL (≈ 38.4 µM); MFC [11]: 15 ± 3 µg/mL (≈ 38.4 µM); MIC [11]: 22 ± 5 µg/mL (≈ 56.3 µM); MFC [12]: 120 ± 40 µg/mL (≈ 307 µM); MIC [12]: 60 ± 6 µg/mL (≈ 154 µM) |
